# From PubChem BioAssay (NCI)
#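 Five concentrations, 48 hours, 96-well plates. GI50: concentration for 50% inhibition of growth. TGI marks complete inhibition of growth.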
# Assays:
# Experiment in all cases: inhibition of tumour cell growth, NCI panel, 48 h
# 786-0 renal = test system: 786-0 renal
# A498 renal = test system: A498 renal
# A549 NSCLC = test system: A549 NSCLC
# ACHN renal = test system: ACHN renal
# BT-549 breast = test system: BT-549 breast
# CAKI-1 renal = test system: CAKI-1 renal
# CCRF-CEM leukemia = test system: CCRF-CEM leukemia
# COLO 205 colon = test system: COLO 205 colon
# DU-145 prostate = test system: DU-145 prostate
# EKVX NSCLC = test system: EKVX NSCLC
# HCC-2998 colon = test system: HCC-2998 colon
# HCT-116 colon = test system: HCT-116 colon
# HCT-15 colon = test system: HCT-15 colon
# HL-60(TB) leukemia = test system: HL-60(TB) leukemia
# HOP-62 NSCLC = test system: HOP-62 NSCLC
# HOP-92 NSCLC = test system: HOP-92 NSCLC
# HS 578T breast = test system: HS 578T breast
# HT29 colon = test system: HT29 colon
# IGROV1 ovarian = test system: IGROV1 ovarian
# K-562 leukemia = test system: K-562 leukemia
# KM12 colon = test system: KM12 colon
# LOX IMVI melanoma = test system: LOX IMVI melanoma
# M14 melanoma = test system: M14 melanoma
# MALME-3M melanoma = test system: MALME-3M melanoma
# MCF7 breast = test system: MCF7 breast
# MDA-MB-231 breast = test system: MDA-MB-231 breast
# MDA-MB-435 = test system: MDA-MB-435
# MOLT-4 leukemia = test system: MOLT-4 leukemia
# NCI-H226 lung = test system: NCI-H226 lung
# NCI-H23 lung = test system: NCI-H23 lung
# NCI-H460 lung = test system: NCI-H460 lung
# NCI-H522 lung = test system: NCI-H522 lung
# NCI/ADR-RES ovarian = test system: NCI/ADR-RES ovarian
# OVCAR-3 ovarian = test system: OVCAR-3 ovarian
# OVCAR-4 ovarian = test system: OVCAR-4 ovarian
# OVCAR-5 ovarian = test system: OVCAR-5 ovarian
# OVCAR-8 ovarian = test system: OVCAR-8 ovarian
# PC-3 prostate = test system: PC-3 prostate
# RPMI-8226 leukemia = test system: RPMI-8226 leukemia
# RXF 393 renal = test system: RXF 393 renal
# SF-268 CNS = test system: SF-268 CNS
# SF-295 CNS = test system: SF-295 CNS
# SF-539 CNS = test system: SF-539 CNS
# SK-MEL-2 melanoma = test system: SK-MEL-2 melanoma
# SK-MEL-28 melanoma = test system: SK-MEL-28 melanoma
# SK-MEL-5 melanoma = test system: SK-MEL-5 melanoma
# SK-OV-3 ovarian = test system: SK-OV-3 ovarian
# SN12C renal = test system: SN12C renal
# SNB-19 CNS = test system: SNB-19 CNS
# SNB-75 CNS = test system: SNB-75 CNS
# SR leukemia = test system: SR leukemia
# SW-620 colon = test system: SW-620 colon
# T-47D breast = test system: T-47D breast
# TK-10 renal = test system: TK-10 renal
# U251 CNS = test system: U251 CNS
# UACC-257 melanoma = test system: UACC-257 melanoma
# UACC-62 melanoma = test system: UACC-62 melanoma
# UO-31 renal = test system: UO-31 renal
smiles,measurement,setting,value
OCCn1cc(-c2cnc3nnn(Cc4ccc5ncccc5c4)c3n2)cn1,GI50,786-0 renal,> 100 µM
same,TGI,786-0 renal,> 100 µM
same,GI50,A498 renal,34.3 µM
same,TGI,A498 renal,> 100 µM
same,GI50,A549 NSCLC,> 100 µM
same,TGI,A549 NSCLC,> 100 µM
same,GI50,ACHN renal,> 100 µM
same,TGI,ACHN renal,> 100 µM
same,GI50,BT-549 breast,> 100 µM
same,TGI,BT-549 breast,> 100 µM
same,GI50,CAKI-1 renal,> 100 µM
same,TGI,CAKI-1 renal,> 100 µM
same,GI50,CCRF-CEM leukemia,> 100 µM
same,TGI,CCRF-CEM leukemia,> 100 µM
same,GI50,COLO 205 colon,> 100 µM
same,TGI,COLO 205 colon,> 100 µM
same,GI50,DU-145 prostate,> 100 µM
same,TGI,DU-145 prostate,> 100 µM
same,GI50,EKVX NSCLC,> 100 µM
same,TGI,EKVX NSCLC,> 100 µM
same,GI50,HCC-2998 colon,> 100 µM
same,TGI,HCC-2998 colon,> 100 µM
same,GI50,HCT-116 colon,> 100 µM
same,TGI,HCT-116 colon,> 100 µM
same,GI50,HCT-15 colon,> 100 µM
same,TGI,HCT-15 colon,> 100 µM
same,GI50,HL-60(TB) leukemia,> 100 µM
same,TGI,HL-60(TB) leukemia,> 100 µM
same,GI50,HOP-62 NSCLC,> 100 µM
same,TGI,HOP-62 NSCLC,> 100 µM
same,GI50,HOP-92 NSCLC,13 µM
same,TGI,HOP-92 NSCLC,> 100 µM
same,GI50,HS 578T breast,> 100 µM
same,TGI,HS 578T breast,> 100 µM
same,GI50,HT29 colon,> 100 µM
same,TGI,HT29 colon,> 100 µM
same,GI50,IGROV1 ovarian,> 100 µM
same,TGI,IGROV1 ovarian,> 100 µM
same,GI50,K-562 leukemia,> 100 µM
same,TGI,K-562 leukemia,> 100 µM
same,GI50,KM12 colon,> 100 µM
same,TGI,KM12 colon,> 100 µM
same,GI50,LOX IMVI melanoma,> 100 µM
same,TGI,LOX IMVI melanoma,> 100 µM
same,GI50,M14 melanoma,> 100 µM
same,TGI,M14 melanoma,> 100 µM
same,GI50,MALME-3M melanoma,> 100 µM
same,TGI,MALME-3M melanoma,> 100 µM
same,GI50,MCF7 breast,> 100 µM
same,TGI,MCF7 breast,> 100 µM
same,GI50,MDA-MB-231 breast,> 100 µM
same,TGI,MDA-MB-231 breast,> 100 µM
same,GI50,MDA-MB-435,> 100 µM
same,TGI,MDA-MB-435,> 100 µM
same,GI50,MOLT-4 leukemia,> 100 µM
same,TGI,MOLT-4 leukemia,> 100 µM
same,GI50,NCI-H226 lung,> 100 µM
same,TGI,NCI-H226 lung,> 100 µM
same,GI50,NCI-H23 lung,> 100 µM
same,TGI,NCI-H23 lung,> 100 µM
same,GI50,NCI-H460 lung,> 100 µM
same,TGI,NCI-H460 lung,> 100 µM
same,GI50,NCI-H522 lung,> 100 µM
same,TGI,NCI-H522 lung,> 100 µM
same,GI50,NCI/ADR-RES ovarian,> 100 µM
same,TGI,NCI/ADR-RES ovarian,> 100 µM
same,GI50,OVCAR-3 ovarian,> 100 µM
same,TGI,OVCAR-3 ovarian,> 100 µM
same,GI50,OVCAR-4 ovarian,> 100 µM
same,TGI,OVCAR-4 ovarian,> 100 µM
same,GI50,OVCAR-5 ovarian,> 100 µM
same,TGI,OVCAR-5 ovarian,> 100 µM
same,GI50,OVCAR-8 ovarian,> 100 µM
same,TGI,OVCAR-8 ovarian,> 100 µM
same,GI50,PC-3 prostate,> 100 µM
same,TGI,PC-3 prostate,> 100 µM
same,GI50,RPMI-8226 leukemia,> 100 µM
same,TGI,RPMI-8226 leukemia,> 100 µM
same,GI50,RXF 393 renal,> 100 µM
same,TGI,RXF 393 renal,> 100 µM
same,GI50,SF-268 CNS,> 100 µM
same,TGI,SF-268 CNS,> 100 µM
same,TGI,SF-295 CNS,> 100 µM
same,GI50,SF-539 CNS,> 100 µM
same,TGI,SF-539 CNS,> 100 µM
same,GI50,SK-MEL-2 melanoma,> 76.2 µM
same,TGI,SK-MEL-2 melanoma,> 100 µM
same,GI50,SK-MEL-28 melanoma,> 100 µM
same,TGI,SK-MEL-28 melanoma,> 100 µM
same,GI50,SK-MEL-5 melanoma,> 100 µM
same,TGI,SK-MEL-5 melanoma,> 100 µM
same,GI50,SK-OV-3 ovarian,> 100 µM
same,TGI,SK-OV-3 ovarian,> 100 µM
same,GI50,SN12C renal,> 100 µM
same,TGI,SN12C renal,> 100 µM
same,GI50,SNB-19 CNS,> 100 µM
same,TGI,SNB-19 CNS,> 100 µM
same,GI50,SNB-75 CNS,> 100 µM
same,TGI,SNB-75 CNS,> 100 µM
same,GI50,SR leukemia,> 100 µM
same,TGI,SR leukemia,> 100 µM
same,GI50,SW-620 colon,> 100 µM
same,TGI,SW-620 colon,> 100 µM
same,GI50,T-47D breast,> 100 µM
same,TGI,T-47D breast,> 100 µM
same,GI50,TK-10 renal,> 100 µM
same,TGI,TK-10 renal,> 100 µM
same,GI50,U251 CNS,> 100 µM
same,TGI,U251 CNS,> 100 µM
same,GI50,UACC-257 melanoma,> 100 µM
same,TGI,UACC-257 melanoma,> 100 µM
same,GI50,UACC-62 melanoma,> 100 µM
same,TGI,UACC-62 melanoma,> 100 µM
same,GI50,UO-31 renal,> 100 µM
same,TGI,UO-31 renal,> 100 µM
